Data reported in ChEMBL document CHEMBL1201862, “PubChem BioAssay data set” (2004).
Activity calls are given as the source filed them. Rule as the data show it: actives have a measured IC50 and inactives only a lower limit.

Target: Envelope glycoprotein gp160 (Human immunodeficiency virus 1, UniProt Q6QLK5)
Assay: cell-free HIV fusion peptide-binding blockers – biochemical, uHTS, fluorescence dequenching, […] (AID 1986)

Chain of Envelope glycoprotein gp160 (Q6QLK5 whole entry, the tested form may be a part): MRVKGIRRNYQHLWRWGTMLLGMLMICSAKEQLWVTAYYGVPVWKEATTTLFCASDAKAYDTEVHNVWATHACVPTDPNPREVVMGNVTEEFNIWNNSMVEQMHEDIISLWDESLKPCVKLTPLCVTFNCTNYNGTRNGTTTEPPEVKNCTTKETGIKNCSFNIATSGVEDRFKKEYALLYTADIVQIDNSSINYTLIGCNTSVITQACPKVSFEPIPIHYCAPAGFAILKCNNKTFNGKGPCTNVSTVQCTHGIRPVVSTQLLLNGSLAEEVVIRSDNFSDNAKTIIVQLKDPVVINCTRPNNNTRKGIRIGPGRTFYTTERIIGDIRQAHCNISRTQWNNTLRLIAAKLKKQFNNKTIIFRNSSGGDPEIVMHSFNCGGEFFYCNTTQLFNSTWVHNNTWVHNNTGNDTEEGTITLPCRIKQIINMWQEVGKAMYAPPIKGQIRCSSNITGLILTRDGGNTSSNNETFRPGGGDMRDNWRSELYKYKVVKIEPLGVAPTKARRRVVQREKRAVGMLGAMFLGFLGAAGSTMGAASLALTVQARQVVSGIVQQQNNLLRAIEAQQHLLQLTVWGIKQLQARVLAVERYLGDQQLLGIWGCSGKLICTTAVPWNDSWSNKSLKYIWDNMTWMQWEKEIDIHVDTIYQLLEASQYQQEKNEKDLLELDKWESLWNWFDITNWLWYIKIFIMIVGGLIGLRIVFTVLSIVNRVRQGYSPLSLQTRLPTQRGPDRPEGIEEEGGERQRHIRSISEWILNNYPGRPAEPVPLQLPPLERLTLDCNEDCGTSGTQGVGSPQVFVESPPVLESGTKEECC

**Q.** For COc1ccc(S(=O)(=O)Nc2ccccc2C(=O)Nc2nc(-c3ccc(F)cc3)cs2)cc1OC, which IC50 is on record?
**A.** 14.8 µM (active)
